For 20 compounds, IC50, Activity and Ratio IC50 results are on record in ChEMBL document CHEMBL3112481, “Synthesis, nitric oxide release, and α-glucosidase inhibition of nitric oxide donating apigenin and chrysin derivatives” (Bioorg Med Chem, 2014).

As a reminder, the IC50 is the point on the concentration scale where inhibition reaches its midpoint.

Data set [1] is described as follows: Inhibition of alpha-glucosidase (unknown origin) assessed as hydrolysis of pNP-alpha-Glu into pNP measured for 10 mins by spectrophotometric analysis. The arrangement: species or system Homo sapiens.
A short description of data set [2]: Induction of nitric oxide release at 10^-4 M after 1 hr by Griess assay in presence of L-cysteine relative to control. Particulars: 100 µM. The data set is classed as physicochemical. (In general: The Griess reaction detects nitrite, a stable product of nitric oxide.)
For a further data set, the species on record is Homo sapiens. Description: Potency index, ratio of apigenin IC50 to compound IC50 for alpha-glucosidase (unknown origin).

The structures appear in SMILES notation. Bounds are passed on as bounds.

With `O=c1cc(-c2ccc(OCCCCCCO[N+](=O)[O-])cc2)oc2cc(OCCCCCCO[N+](=O)[O-])cc(O)c12`, the half-inhibitory concentration (IC50) in data set [1] was 4.59 µM. The Activity in data set [2] came out at 0.49%.
In the case of `OC[C@H]1NC[C@H](O)[C@@H](O)[C@@H]1O` [DUVOGLUSTAT], the IC50 in data set [1] turned out to be 227 µM.
On to `O=c1cc(-c2ccc(O)cc2)oc2cc(O)cc(O)c12` [APIGENIN], for which the IC50 in data set [1] stood at 16.8 µM.
On the same count and under the same terms, with `O=C(COc1cc(O)c2c(=O)cc(-c3ccccc3)oc2c1)OCCO[N+](=O)[O-]` the figure was 24 µM.
For `O=C(COc1ccc(-c2cc(=O)c3c(O)cc(OCC(=O)OCCCCO[N+](=O)[O-])cc3o2)cc1)OCCCCO[N+](=O)[O-]`, the Ratio IC50 in the data set filed under Homo sapiens amounted to 7.2. In data set [1], the IC50 worked out at 2.33 µM. Also, in data set [2], the Activity was 1.757%.
Turning to `O=C(COc1cc(O)c2c(=O)cc(-c3ccccc3)oc2c1)OCCCCO[N+](=O)[O-]`, in data set [1], the 50% inhibitory concentration (IC50) is 14.1 µM.
The same measure, in the same setting: with `O=c1cc(-c2ccccc2)oc2cc(OCCCCCCO[N+](=O)[O-])cc(O)c12` the figure was 21 µM.
With `O=c1cc(-c2ccc(OCCCCO[N+](=O)[O-])cc2)oc2cc(OCCCCO[N+](=O)[O-])cc(O)c12`, in data set [1], the concentration for half-maximal inhibition (IC50) is 5.04 µM. In data set [2], the Activity is 0.24%.
As for `CC(=O)Oc1cc(OCCCCCCO[N+](=O)[O-])cc2oc(-c3ccccc3)cc(=O)c12`, in data set [1], the IC50 was over 100 µM.
The same measure, in the same setting: the same measure for `C[C@H]1O[C@H](O[C@H]2[C@H](O)[C@@H](O)[C@@H](O[C@H]3[C@H](O)[C@@H](O)C(O)O[C@@H]3CO)O[C@@H]2CO)[C@H](O)[C@@H](O)[C@@H]1N[C@H]1C=C(CO)[C@@H](O)[C@H](O)[C@H]1O` (stereo partly drawn) [ACARBOSE]: 564 µM.
With `O=c1cc(-c2ccc(OCCO[N+](=O)[O-])cc2)oc2cc(OCCO[N+](=O)[O-])cc(O)c12`, the half-maximal inhibitory concentration (IC50) in data set [1] is 7.78 µM. In addition, in data set [2], the Activity worked out at 0.3%.
`O=C(COc1ccc(-c2cc(=O)c3c(O)cc(OCC(=O)OCCCCCCO[N+](=O)[O-])cc3o2)cc1)OCCCCCCO[N+](=O)[O-]`: in data set [1], the 50% inhibitory concentration (IC50) came to 2.57 µM. Besides, the Activity in data set [2] was 1.147%.
`O=c1cc(-c2ccccc2)oc2cc(OCCO[N+](=O)[O-])cc(O)c12`: in data set [1], the half-maximal inhibitory concentration (IC50) is 30 µM.
As to `O=C(COc1ccc(-c2cc(=O)c3c(O)cc(OCC(=O)OCCO[N+](=O)[O-])cc3o2)cc1)OCCO[N+](=O)[O-]`, the concentration for half-maximal inhibition (IC50) in data set [1] amounted to 3.71 µM. In addition, the Activity in data set [2] worked out at 1.237%.
Consider `CC(=O)Oc1cc(OCCO[N+](=O)[O-])cc2oc(-c3ccccc3)cc(=O)c12`, for which the concentration for half-maximal inhibition (IC50) in data set [1] is over 100 µM.
For the compound `O=c1cc(-c2ccccc2)oc2cc(OCCCCO[N+](=O)[O-])cc(O)c12`, the 50% inhibitory concentration (IC50) in data set [1] is 18.7 µM.
As for `O=[N+]([O-])OCC(CO[N+](=O)[O-])O[N+](=O)[O-]` [NITROGLYCERIN], the IC50 in data set [1] was over 180 µM. Moreover, the Activity in data set [2] worked out at 5.14%.
As to `CC(=O)Oc1cc(OCCCCO[N+](=O)[O-])cc2oc(-c3ccccc3)cc(=O)c12`, the IC50 in data set [1] is over 100 µM.
Regarding `O=C(COc1cc(O)c2c(=O)cc(-c3ccccc3)oc2c1)OCCCCCCO[N+](=O)[O-]`, the IC50 in data set [1] was 3.39 µM.
The same measure, in the same setting: the same measure for `O=c1cc(-c2ccccc2)oc2cc(O)cc(O)c12` [CHRYSIN]: 77.7 µM.
